According to patent publication US20060009432A1, “Use of neurosteroids to treat neuropathic pain” (priority 2004, published 2006):

Tests used:
[1] = tested on: rats receiving sham surgery; assay: Thermal withdrawal in rats receiving sham surgery; assay type: in vivo, rat
Protocol: (§1) (A) L5/L6 spinal nerve ligation (SNL) was performed as described by Kim and Chung (Pain, 50,355-363(1992)). Animals (mice or rats) were anesthetized with halothane. An incision was made lateral to the lumbar spine. The right L5 and L6 spinal nerves were isolated and tightly ligated distal to the dorsal root ganglion. The incision was closed, and animals were allowed to recover for 10 days. Sham-operated animals were prepared in an identical fashion except that the spinal nerves were not ligated.
(B) The method of Hargreaves et al. (Pain, 32, 77-88 (1988)) was used to measure the thermal withdrawal latency in SNL rats. Animals were acclimated within Plexiglas enclosures on a clear glass plate maintained at 30° C. A radiant heat source (high-intensity projector lamp) was focused onto the plantar surface of the paw. When the paw was withdrawn, a motion detector halted the stimulus and a timer. A maximal cut-off of 40 sec for rats and 30 sec for mice was used to prevent tissue damage. Differences in responses between groups were tested by using the standard ANOVA statistical test followed by post hoc testing with Student's t test with Bonferroni's correction. Significance was defined as P<0.05.
The thermal withdrawal response was measured using the same protocol in rats receiving sham surgery. Table 4 provides the resulting measurement of thermal withdrawal in groups of five rats per dose level.

[2] = tested on: chronic constriction injury (CCI) of the sciatic nerve, rats; assay: Cold allodynia (acetone application) in chronic constriction injury model; assay type: in vivo, rat; conditions: for Average time to withdrawal (s.e.m.): CCI rats
Protocol: Unilateral sciatic nerve injury was produced under deep anesthesia with i.p injection of sodium pentobarbital (Mebumal, 60 mg/kg), as described by Bennett and Xie (Pain, 33, 87-107(1988)). The common sciatic nerve was exposed and freed for about 10 mm at mid-thigh level. Four ligatures (Ethicon, 4.0 plain gut) were tied loosely around the nerve with about 1-mm spacing creating a chronic constriction injury (CCl), and the incision was closed.
Brisk foot withdrawal in response to acetone application was measured based on the method described by Choi et al. The acetone bubble was gently brought in touch with the plantar surface around the center, and the acetone quickly spread over the central part of the plantar surface of the foot. Applications were made five times (once every 5 min) to each paw. The score for each application was recorded as follows: foot withdrawal was scored as positive (1) and lack of withdrawal as negative (O). The total score (0 to 5) was taken as index for cold sensitivity of the foot […]. This approximates pain from a non-noxious stimulus, i.e. allodynia.
Cold allodynia response was measured 15, 30, 45, 60, 90 and 120 minutes after i.p. administration of ganaxolone (at 1 mg/kg, 3 mg/kg or 10 mg/kg) as well as prior to administration of the neurosteroid and prior to infliction of the neural injury. Table 1 provides the resulting measurement of cold allodynia response in groups of six rats per dosage level. The abbreviation “s.e.m.” means standard error mean.

migraine = conditions: phase 2 clinical trial for migraine; cited from earlier work
[3] = tested on: L5/L6 spinal nerve ligation (SNL) rats; assay: Tactile allodynia (von Frey) in spinal nerve ligation model; assay type: in vivo, rat; conditions: 1 mg/kg i.p., SNL rats
Protocol: as §1
The protocol was repeated until three changes in behavior were determined. The maximal cut-off size values used were 15 g for rats and 3.5 g for mice. The 50% paw withdrawal threshold was determined as 10Xf+kδ/10,000, where Xf=the value of the last von Frey filament used, k=Dixon value for the positive/negative pattern, and δ=the logarithmic difference between stimuli.
Tactile allodynia response was measured 15, 30, 45, 60, 90 and 120 minutes after i.p. administration of ganaxolone (at 1 mg/kg, 3 mg/kg, 6 mg/kg or 10 mg/kg). Table 2 provides the resulting measurement of tactile allodynia response in groups of five rats per dosage level.

Compound: CC(=O)[C@H]1CC[C@H]2[C@@H]3CC[C@H]4C[C@](C)(O)CC[C@]4(C)[C@H]3CC[C@]12C [ganaxolone, 3α-hydroxy-3β-methyl-5α-pregnan-20-one]
- % Activity (thermal withdrawal) ([1]; 3 mg/kg, 15 min): 11.87 ± 7.34%
- % Activity (thermal withdrawal) ([1]; 3 mg/kg, 30 min): 3.25 ± 2.71%
- % Activity (thermal withdrawal) ([1]; 3 mg/kg, 45 min): 3.62 ± 3.62%
- % Activity (thermal withdrawal) ([1]; 3 mg/kg, 60 min): 1.98 ± 1.98%
- % Activity (thermal withdrawal) ([1]; 3 mg/kg, 90 min): 2.22 ± 1.61%
- % Activity (thermal withdrawal) ([1]; 3 mg/kg, 120 min): 1.39 ± 1.39%
- % Activity (thermal withdrawal) ([1]; 6 mg/kg, 15 min): 0.00 ± 0.00%
- % Activity (thermal withdrawal) ([1]; 6 mg/kg, 30 min): 0.00 ± 0.00%
- % Activity (thermal withdrawal) ([1]; 6 mg/kg, 45 min): 3.98 ± 3.98%
- % Activity (thermal withdrawal) ([1]; 6 mg/kg, 60 min): 2.95 ± 2.95%
- % Activity (thermal withdrawal) ([1]; 6 mg/kg, 90 min): 1.73 ± 1.73%
- % Activity (thermal withdrawal) ([1]; 6 mg/kg, 120 min): 0.41 ± 0.41%
- % Activity (thermal withdrawal) ([1]; 10 mg/kg, 15 min): 24.54 ± 19.33%
- % Activity (thermal withdrawal) ([1]; 10 mg/kg, 30 min): 22.60 ± 11.64%
- % Activity (thermal withdrawal) ([1]; 10 mg/kg, 45 min): 8.03 ± 4.26%
- % Activity (thermal withdrawal) ([1]; 10 mg/kg, 60 min): 0.65 ± 0.65%
- % Activity (thermal withdrawal) ([1]; 10 mg/kg, 90 min): 0.28 ± 0.28%
- % Activity (thermal withdrawal) ([1]; 10 mg/kg, 120 min): 0.02 ± 0.02%
- Average time to withdrawal (s.e.m.) ([2]; 1 mg/kg i.p., 15 min after administration): 7.40 (1.02)
- Average time to withdrawal (s.e.m.) ([2]; 1 mg/kg i.p., 30 min after administration): 6.12 (1.72)
- Average time to withdrawal (s.e.m.) ([2]; 1 mg/kg i.p., 45 min after administration): 5.07 (1.14)
- Average time to withdrawal (s.e.m.) ([2]; 1 mg/kg i.p., 60 min after administration): 2.59 (0.47)
- Average time to withdrawal (s.e.m.) ([2]; 1 mg/kg i.p., 90 min after administration): 3.66 (0.47)
- Average time to withdrawal (s.e.m.) ([2]; 1 mg/kg i.p., 120 min after administration): 3.16 (0.26)
- Average time to withdrawal (s.e.m.) ([2]; 3 mg/kg i.p., 15 min after administration): 6.77
- Average time to withdrawal (s.e.m.) ([2]; 3 mg/kg i.p., 30 min after administration): 13.03
- Average time to withdrawal (s.e.m.) ([2]; 3 mg/kg i.p., 45 min after administration): 11.12
- Average time to withdrawal (s.e.m.) ([2]; 3 mg/kg i.p., 60 min after administration): 11.69
- Average time to withdrawal (s.e.m.) ([2]; 3 mg/kg i.p., 90 min after administration): 10.26
- Average time to withdrawal (s.e.m.) ([2]; 3 mg/kg i.p., 120 min after administration): 10.30
- Average time to withdrawal (s.e.m.) ([2]; 10 mg/kg i.p., 15 min after administration): 13.86
- Average time to withdrawal (s.e.m.) ([2]; 10 mg/kg i.p., 30 min after administration): 15.35
- Average time to withdrawal (s.e.m.) ([2]; 10 mg/kg i.p., 45 min after administration): 13.34
- Average time to withdrawal (s.e.m.) ([2]; 10 mg/kg i.p., 60 min after administration): 10.38
- Average time to withdrawal (s.e.m.) ([2]; 10 mg/kg i.p., 90 min after administration): 8.59
- Average time to withdrawal (s.e.m.) ([2]; 10 mg/kg i.p., 120 min after administration): 8.87
- Effect on average time to withdrawal ([2]; summary of Table 1, CCI rats): increases the average time to withdrawal
- Benefit on time to pain relief (migraine): failed to show benefit
- % Activity ± s.e.m. (tactile allodynia) ([3]; 15 min): 2.83 ± 2.83%
- % Activity ± s.e.m. (tactile allodynia) ([3]; 30 min): 6.35 ± 3.38%
- % Activity ± s.e.m. (tactile allodynia) ([3]; 45 min): 3.20 ± 2.21%
- % Activity ± s.e.m. (tactile allodynia) ([3]; 60 min): 2.41 ± 1.53%
- % Activity ± s.e.m. (tactile allodynia) ([3]; 90 min): 2.41 ± 1.53%
- % Activity ± s.e.m. (tactile allodynia) ([3]; 120 min): 3.06 ± 3.06%
